{"source": "patent US10226514B2", "about": "“Methods and compositions for reducing blood glucose levels” (The Children's Medical Center Corporation, priority 2011, dated 2019)", "key": {"[1]": {"system": "XBP1s mRNA", "assay": "XBP1s mRNA levels and stability (Q-PCR, actinomycin D)", "format": "cell-based, mouse", "protocol": "Total RNA was extracted from cells or animal tissues using Trizol reagent (Invitrogen) and transcribed into cDNA using cDNA synthesis kit (Bio-Rad). The gene expression analysis was performed with iQ5 Multicolor Real-Time PCR Detection System (Bio-Rad) with SYBR Green Supermix (Bio-Rad). The mRNA level was normalized to 18S as a house keeping gene. The primer sequences used were:\nFor mRNA stability determination, MEF cells were infected with Ad-XBP1s. Sixteen hour after the infection, cells were treated with anisomycin (25 ng/ml) or vehicle (DMSO) for 1 h. Actinomycin D (10 μg/ml, Sigma) was added to the medium. Cells were flash frozen in liquid nitrogen at various time points. mRNA levels were determined via Q-PCR."}, "[2]": {"system": "p38 MAPK", "assay": "p38 MAPK phosphorylation in anisomycin-treated knock-out cells", "format": "cell-based", "source_text": "It is known that MAPK kinase kinase (MKK) 4 and 7 are upstream kinases responsible for JNK activation (Tournier, C., et al. (2001) Genes Dev 15:1419-1426; Brancho, D., et al. (2003) Genes Dev 17:1969-1978) and anisomycin or TNFα cannot activate JNK in MKK4 and 7 double knock out cells (MKK4,7^−/−) (Tournier, C., et al. (2001) Genes Dev 15:1419-1426; Schaeffer, H. J. & Weber, M. J. (1999) Mol Cell Biol 19:2435-2444). In order to determine whether XBP1s can be regulated by anisomycin treatment in MKK4,7^−/− cells, these cells, along with their controls, were treated with anisomycin after XBP is expression. […] Furthermore, the experiments were repeated in JNK1,2^−/− and MKK4,7^−/− cells with TNFα. […] Finally, an MKK7-JNK1 fusion protein, previously shown to be a specific activator of JNK (Lei, K., et al. (2002) Mol Cell Biol 22:4929-4942), was used to investigate whether activation of JNK alone can have effect on XBP1s."}, "[3]": {"system": "XBP1s", "assay": "XBP1s levels in Ad-XBP1s-infected Fao cells", "format": "cell-based", "conditions": "Ad-XBP1s-infected Fao cells (rat hepatoma)", "protocol": "MEF cells were from American Type Tissue Collection (ATCC). These cells were grown in Dulbecco's Modified Eagel Medium (DMEM) supplemented with 10% fetal bovine serum (FBS), 10 U/ml penicillin and 1 μg/ml streptomycin at 37° C. and 5% CO2. Fao cells were maintained in RPMI 1640 medium (Invitrogen) supplemented with 10% fetal bovine serum (FBS), 10 U/ml penicillin and 1 μg/ml streptomycin.\nAdenovirus expressing XBP1s T48A, XBP1s S61A, XBP1s T48A/S61A and MKK6Glu were produced with ViraPower Adenoviral Expression System (Invitrogen) according to manufacturer's instruction. Briefly, pAD-XBP1s T48A, pAD-XBP1s S61A, pAd-XBP1s T48A/S61A and pAd-MKK6Glu were linearized by restriction endonuclease digestion with PacI and transfected to 293A cells by Lipofectamine. The media was changed with fresh media every other day until the cytopathic effect was observed. When cytopathic effect reached to 80%, cells were collected by centrifugation. The pellet was resuspended in PBS and subjected to freezing and thawing cycles at −80° C. and 37° C. for 4 times. The supernatant containing the virus was prepared by centrifugation at 4,000 rpm for 20 min at room temperature. […]\nWestern blot analysis was performed as previously described (Ozcan, L., et al. (2009) Cell metabolism 9:35-51). […] Relative protein levels were quantified by Image J program."}, "[4]": {"system": "XBP1s", "assay": "Cytoplasmic and nuclear XBP1s protein in cells", "format": "cell-based, mouse", "conditions": "anisomycin 25 ng/ml, two hours", "protocol": "Cytoplasmic and nuclear protein fractions were extracted from cells by using nuclear protein extraction kit from Active Motif (Carlsbad, Calif.). Cells were maintained in 10 cm tissue culture dishes for nuclear/cytoplasmic extraction. After removal of the media, cells were washed with ice-cold phosphate buffered saline (PBS) containing phosphatase inhibitors. Subsequently, 3 ml of ice-cold PBS with phosphatase inhibitors was added and then cells were scrapped out of the dish. Collected cells were separated from PBS by centrifugation for 5 minutes at 500 rpm and resuspended with 500 μl of 1× hypotonic buffer. After 15-minute incubation in hypotonic buffer on ice, 25 μl of supplied detergent was added and cells were vortexed 10 seconds. Cells were centrifuged for 30 seconds at 14,000×g and supernatant (cytoplasmic fraction) was saved for further analysis. Remaining pellet, which contains nuclei, were resuspended with 50 μl of provided complete lysis buffer with 1 mM dithiothreitol (DTT), vortexed 10 seconds, and incubated for 30 minutes on ice. After 30-second vortexing and 10-minute centrifugation at 14,000×g, the supernatant was collected and analyzed as nuclear fraction."}, "[5]": {"system": "XBP1s", "assay": "XBP1s protein degradation after cycloheximide", "format": "cell-based, mouse", "conditions": "anisomycin 25 ng/ml two hours, then cycloheximide 10 μg/ml, vs vehicle", "protocol": "MEF cells were infected with Ad-XBP1s. After 24 h post-infection, cells were treated with anisomycin at 25 ng/ml or vehicle (DMSO) for 2 h. Translation […] inhibitor cycloheximide (10 μg/ml, Sigma) was added to the medium. Cells were flash frozen in liquid nitrogen at various time points. Protein levels were determined via immunoblotting."}}, "note": "“Also recorded” adds a separate entry of the source.", "data": [{"smiles": "COc1ccc(C[C@H]2NC[C@H](O)[C@H]2OC(C)=O)cc1", "note": "[anisomycin]", "values": [{"measurement": "enhanced stability of XBP1s mRNA", "setting": "[1]; MK2−/− cells, anisomycin 25 ng/ml", "value": "completely lost"}, {"measurement": "XBP1s mRNA stability", "setting": "[1]; TTP−/− cells, anisomycin 25 ng/ml one hour, actinomycin D 10 μg/ml", "value": "capable of increasing XBP1s mRNA stability"}, {"measurement": "XBP1s mRNA levels", "setting": "[1]; XBP1s expressing control cells, one hour", "value": "dramatic increase in mRNA of XBP1s; also recorded: increased the mRNA levels of XBP1s in a dose dependent manner"}, {"measurement": "p38 MAPK phosphorylation", "setting": "[2]; JNK1,2−/− cells", "value": "marked increase in p38 MAPK phosphorylation"}, {"measurement": "p38 MAPK activation", "setting": "[2]; MKK4,7−/− cells", "value": "significantly increased"}, {"measurement": "XBP1s levels", "setting": "[3]", "value": "dramatically upregulating their XBP1s levels"}, {"measurement": "cytoplasmic levels of XBP1s vs vehicle-treated cells", "setting": "[4]", "value": 28.8, "unit": "times"}, {"measurement": "nuclear levels of XBP1s vs vehicle-treated cells", "setting": "[4]", "value": 141.8, "unit": "times"}, {"measurement": "degradation rate of XBP1s protein", "setting": "[5]", "value": "No differences in the degradation rate of XBP1s protein"}]}]}
